Measured values: BindingDB's records for patent US20240083872 (Shionogi, 2024)

How the values were obtained:
[1] = target: 5-hydroxytryptamine receptor 2A (Homo sapiens, UniProt P28223); test: 5-HT2A Receptor Binding Inhibition Assay
Description: (§1) Binding Test of the Compound According to the Present Invention: In advance, 0.5 μL of the compound solution dissolved in DMSO was dispensed into a microplate, and the cell membrane and the hot ligand were diluted with Assay buffer, respectively. Then, the Assay buffer containing the diluted cell membrane was dispensed into a microplate at 50 μL/well. Then, the radioactive ligand solution was dispensed into a microplate at 50 μL/well, and the plate was sealed. Then, it was allowed to stand at room temperature (25° C.) for 1.5 hours. During this period, 50 mmol/L Tris-HCl (pH 7.4) was dispensed into a GF/B UniFilter plate at 50 μL/well and allowed to stand at 4° C. for 1 hour or longer. After that, filtration was performed with Cell harvester (PerkinElmer). […] The radioactivity of [3H]-Ketanserin bound to the 5-HT2A receptor was measured using Microbeta2 (PerkinElmer) at a measurement time of 1 min/well. The non-specific binding was calculated from the radioactivity of [3H]-Ketanserin in the presence of 500 μmol/L Serotonin HCl with the unlabeled ligand, and the total binding was calculated from the radioactivity of [3H]-Ketanserin in the absence of the compound according to the present invention (Vehicle). Finally, the Ki value was calculated from the dose-response curve.

[2] = target: T1, 5-hydroxytryptamine receptor 2C (Homo sapiens, UniProt P28335); test: 5-HT2C Receptor Binding Inhibition Assay
T1 sequence (P28335 whole entry): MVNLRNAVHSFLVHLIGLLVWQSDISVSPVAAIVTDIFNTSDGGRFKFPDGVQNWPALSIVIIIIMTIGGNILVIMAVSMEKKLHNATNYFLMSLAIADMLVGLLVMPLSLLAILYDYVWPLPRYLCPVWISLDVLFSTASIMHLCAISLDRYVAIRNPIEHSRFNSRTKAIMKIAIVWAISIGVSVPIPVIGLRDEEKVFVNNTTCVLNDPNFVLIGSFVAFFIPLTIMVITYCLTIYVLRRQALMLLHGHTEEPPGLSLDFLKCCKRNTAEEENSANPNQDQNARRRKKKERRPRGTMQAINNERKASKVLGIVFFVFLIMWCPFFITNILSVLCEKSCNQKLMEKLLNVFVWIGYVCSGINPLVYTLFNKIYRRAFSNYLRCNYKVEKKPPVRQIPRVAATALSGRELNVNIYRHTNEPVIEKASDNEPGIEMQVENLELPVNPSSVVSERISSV
Description: as §1, with “Invention:In” for “Invention: In”, “37° C.” for “room temperature (25° C.)”, “2” for “1.5”, “(PerkinElmer). After the GF/B UniFilter plate was dried at room temperature, MicroScinti 20 was dispensed into the GF/B UniFilter plate at 50 μL/well, and the plate was sealed.” for “(PerkinElmer).”, “[3H]-Mesulergine” for “[3H]-Ketanserin”, “(Vehicle).” for “(Vehicle). Finally, the Ki value was calculated from the dose-response curve.”

5-hydroxytryptamine receptor 2A, sequence (P28223 whole entry): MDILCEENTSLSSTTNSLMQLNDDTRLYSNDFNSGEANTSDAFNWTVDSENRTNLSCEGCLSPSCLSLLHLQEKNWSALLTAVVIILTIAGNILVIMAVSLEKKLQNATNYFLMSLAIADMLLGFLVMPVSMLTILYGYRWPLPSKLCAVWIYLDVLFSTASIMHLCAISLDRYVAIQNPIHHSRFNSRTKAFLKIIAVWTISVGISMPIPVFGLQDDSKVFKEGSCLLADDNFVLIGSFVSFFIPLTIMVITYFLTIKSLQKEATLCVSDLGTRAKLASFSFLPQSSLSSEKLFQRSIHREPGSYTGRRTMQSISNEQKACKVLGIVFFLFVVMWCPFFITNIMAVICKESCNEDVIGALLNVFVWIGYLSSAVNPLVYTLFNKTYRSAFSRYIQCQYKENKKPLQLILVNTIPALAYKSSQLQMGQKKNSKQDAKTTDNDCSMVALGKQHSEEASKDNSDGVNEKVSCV

CC(C)CNc1ccc(CN(Cc2ccn(C)n2)C(=O)NC2CCN(C)CC2)cc1 [US20240083872, Compound I-030] showed a Ki [1] of 2.17 nM and a Ki [2] of 7.76 nM.
